Calls of active or inactive are those of the source. No cut-off for these calls is given here.
Tests used:
Orexin receptor type 2 = biological target: T1, Orexin receptor type 2 (Homo sapiens, UniProt O43614); test: Agonist activity at human OX2R expressed in CHO-K1 cells by FLIPR calcium flux assay; type: functional, cell-based
T1 sequence (O43614 whole entry): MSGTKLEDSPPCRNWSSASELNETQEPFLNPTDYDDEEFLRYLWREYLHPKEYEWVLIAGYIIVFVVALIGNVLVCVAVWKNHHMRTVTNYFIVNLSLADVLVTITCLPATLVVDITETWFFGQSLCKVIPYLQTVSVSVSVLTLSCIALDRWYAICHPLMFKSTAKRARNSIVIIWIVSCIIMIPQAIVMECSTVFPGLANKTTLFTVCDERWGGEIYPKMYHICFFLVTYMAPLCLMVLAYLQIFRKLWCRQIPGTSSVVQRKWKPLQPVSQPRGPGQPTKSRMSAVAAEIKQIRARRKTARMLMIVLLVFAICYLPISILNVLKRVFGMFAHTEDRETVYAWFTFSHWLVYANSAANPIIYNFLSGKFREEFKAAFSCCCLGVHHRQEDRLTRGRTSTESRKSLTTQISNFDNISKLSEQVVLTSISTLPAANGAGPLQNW

Mus musculus = test: Sleep modulation activity in ICR mouse assessed as increase in time spent in wakefulness at 3 mg/kg, sc administered at zeitgeber time 5 measured after 3 hrs post injection; type: functional, organism-based

CC[C@H](C)[C@H](NC(=O)CNC(=O)[C@H](C)NC(=O)[C@H](C)NC(=O)[C@H](Cc1cnc[nH]1)NC(=O)[C@H](CC(N)=O)NC(=O)CNC(=O)[C@H](C)NC(=O)CNC(=O)[C@H](Cc1cnc[nH]1)NC(=O)[C@H](CC(C)C)NC(=O)[C@H](CC(C)C)NC(=O)[C@H](CCC(=O)O)NC(=O)[C@H](Cc1ccc(O)cc1)NC(=O)[C@H](CC(C)C)NC(=O)[C@H](CCCNC(=N)N)NC(=O)[C@H](CS)NC(=O)[C@H](CO)NC(=O)[C@H](CS)NC(=O)[C@@H](NC(=O)[C@H](CCCCN)NC(=O)[C@H](CCC(N)=O)NC(=O)[C@H](CCCNC(=N)N)NC(=O)[C@H](CS)NC(=O)[C@H](CS)NC(=O)[C@H](CC(=O)O)NC(=O)[C@@H]1CCCN1C(=O)[C@H](CC(C)C)NC(=O)[C@@H]1CCCN1C(=O)[C@@H]1CCC(=O)N1)[C@@H](C)O)C(=O)N[C@@H](CC(C)C)C(=O)N[C@H](C(=O)N[C@@H](CC(C)C)C(=O)O)[C@@H](C)O
EC50 (Orexin receptor type 2): 0.18 nM

COC(=O)N1CCC[C@H](NS(C)(=O)=O)[C@@H]1CO[C@H]1CC[C@@H](c2ccccc2)CC1
Activity (Mus musculus): Active

Source: ChEMBL document CHEMBL5046303, “Discovery of TAK-925 as a Potent, Selective, and Brain-Penetrant Orexin 2 Receptor Agonist” (ACS Med Chem Lett, 2022)
